From ChEMBL document CHEMBL5390261, “Agents for the Treatment of Gout: Current Advances and Future Perspectives” (J Med Chem, 2023)
pIC50: −log10 of the molar value. One block for each compound: values may come before it.

Experiments:
[1] = molecular target: T1, Xanthine dehydrogenase/oxidase (Homo sapiens, UniProt P47989); assay: Inhibition of XO (unknown origin) using xanthine as substrate assessed as reduction in uric acid formation by double beam spectrophotometric analysis
[2] = molecular target: T1, Xanthine dehydrogenase/oxidase; assay: Inhibition of XO (unknown origin) by microtitre plate analysis
[3] = molecular target: Xanthine dehydrogenase/oxidase (Bos taurus, UniProt P80457); assay: Inhibition of Bovine milk xanthine oxidase using xanthine as substrate assessed as decrease in uric acid level preincubated for 5 mins followed by substrate addition by spectrophotometric analysis
Sequence of Xanthine dehydrogenase/oxidase (Bos taurus, UniProt P80457) (P80457 whole entry): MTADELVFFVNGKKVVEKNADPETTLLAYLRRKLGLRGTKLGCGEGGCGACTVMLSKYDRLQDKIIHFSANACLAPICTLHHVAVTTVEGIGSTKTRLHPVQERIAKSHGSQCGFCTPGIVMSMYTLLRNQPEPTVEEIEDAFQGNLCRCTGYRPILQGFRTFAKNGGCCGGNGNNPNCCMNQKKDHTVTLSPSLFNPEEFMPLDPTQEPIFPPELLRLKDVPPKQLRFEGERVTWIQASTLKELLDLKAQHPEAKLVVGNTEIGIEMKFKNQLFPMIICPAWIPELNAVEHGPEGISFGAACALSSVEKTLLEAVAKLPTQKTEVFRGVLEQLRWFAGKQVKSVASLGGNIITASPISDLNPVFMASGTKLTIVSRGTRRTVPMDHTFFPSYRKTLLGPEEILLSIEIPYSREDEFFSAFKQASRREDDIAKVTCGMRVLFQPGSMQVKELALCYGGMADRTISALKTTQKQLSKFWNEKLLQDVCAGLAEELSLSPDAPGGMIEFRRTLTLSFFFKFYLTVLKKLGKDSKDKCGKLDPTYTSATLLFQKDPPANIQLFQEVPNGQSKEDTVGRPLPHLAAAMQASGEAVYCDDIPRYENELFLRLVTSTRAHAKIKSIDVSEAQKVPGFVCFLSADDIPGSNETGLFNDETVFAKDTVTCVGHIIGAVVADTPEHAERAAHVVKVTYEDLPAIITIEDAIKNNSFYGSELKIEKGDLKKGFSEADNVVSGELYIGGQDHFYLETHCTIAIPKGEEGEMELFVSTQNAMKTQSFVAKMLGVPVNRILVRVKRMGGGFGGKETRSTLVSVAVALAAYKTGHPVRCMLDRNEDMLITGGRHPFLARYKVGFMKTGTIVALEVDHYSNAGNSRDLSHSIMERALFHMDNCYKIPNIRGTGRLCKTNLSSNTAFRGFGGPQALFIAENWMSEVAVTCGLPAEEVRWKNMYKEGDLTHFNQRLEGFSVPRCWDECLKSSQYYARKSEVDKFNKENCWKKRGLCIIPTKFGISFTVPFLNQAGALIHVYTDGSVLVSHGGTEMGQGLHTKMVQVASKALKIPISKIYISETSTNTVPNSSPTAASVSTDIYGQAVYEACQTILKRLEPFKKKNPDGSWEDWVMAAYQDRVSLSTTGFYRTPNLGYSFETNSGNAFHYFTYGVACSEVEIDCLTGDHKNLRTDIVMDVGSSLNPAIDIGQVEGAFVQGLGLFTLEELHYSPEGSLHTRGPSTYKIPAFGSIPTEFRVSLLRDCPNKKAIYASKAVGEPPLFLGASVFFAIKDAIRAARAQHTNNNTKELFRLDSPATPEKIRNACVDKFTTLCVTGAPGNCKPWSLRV

[4] = molecular target: T1, Xanthine dehydrogenase/oxidase; assay: Inhibition of XO (unknown origin) using xanthine as substrate preincubated for 3 hrs followed by substrate addition by UV-Vis spectrophotometric analysis
[5] = molecular target: T1, Xanthine dehydrogenase/oxidase; assay: Inhibition of XO (unknown origin)
[6] = molecular target: T1, Xanthine dehydrogenase/oxidase; assay: Inhibition of XO (unknown origin) using xanthine as substrate assessed as reduction in uric acid formation by FluoSTAR OPTIMA plate reader analysis

T1 sequence (P47989 whole entry): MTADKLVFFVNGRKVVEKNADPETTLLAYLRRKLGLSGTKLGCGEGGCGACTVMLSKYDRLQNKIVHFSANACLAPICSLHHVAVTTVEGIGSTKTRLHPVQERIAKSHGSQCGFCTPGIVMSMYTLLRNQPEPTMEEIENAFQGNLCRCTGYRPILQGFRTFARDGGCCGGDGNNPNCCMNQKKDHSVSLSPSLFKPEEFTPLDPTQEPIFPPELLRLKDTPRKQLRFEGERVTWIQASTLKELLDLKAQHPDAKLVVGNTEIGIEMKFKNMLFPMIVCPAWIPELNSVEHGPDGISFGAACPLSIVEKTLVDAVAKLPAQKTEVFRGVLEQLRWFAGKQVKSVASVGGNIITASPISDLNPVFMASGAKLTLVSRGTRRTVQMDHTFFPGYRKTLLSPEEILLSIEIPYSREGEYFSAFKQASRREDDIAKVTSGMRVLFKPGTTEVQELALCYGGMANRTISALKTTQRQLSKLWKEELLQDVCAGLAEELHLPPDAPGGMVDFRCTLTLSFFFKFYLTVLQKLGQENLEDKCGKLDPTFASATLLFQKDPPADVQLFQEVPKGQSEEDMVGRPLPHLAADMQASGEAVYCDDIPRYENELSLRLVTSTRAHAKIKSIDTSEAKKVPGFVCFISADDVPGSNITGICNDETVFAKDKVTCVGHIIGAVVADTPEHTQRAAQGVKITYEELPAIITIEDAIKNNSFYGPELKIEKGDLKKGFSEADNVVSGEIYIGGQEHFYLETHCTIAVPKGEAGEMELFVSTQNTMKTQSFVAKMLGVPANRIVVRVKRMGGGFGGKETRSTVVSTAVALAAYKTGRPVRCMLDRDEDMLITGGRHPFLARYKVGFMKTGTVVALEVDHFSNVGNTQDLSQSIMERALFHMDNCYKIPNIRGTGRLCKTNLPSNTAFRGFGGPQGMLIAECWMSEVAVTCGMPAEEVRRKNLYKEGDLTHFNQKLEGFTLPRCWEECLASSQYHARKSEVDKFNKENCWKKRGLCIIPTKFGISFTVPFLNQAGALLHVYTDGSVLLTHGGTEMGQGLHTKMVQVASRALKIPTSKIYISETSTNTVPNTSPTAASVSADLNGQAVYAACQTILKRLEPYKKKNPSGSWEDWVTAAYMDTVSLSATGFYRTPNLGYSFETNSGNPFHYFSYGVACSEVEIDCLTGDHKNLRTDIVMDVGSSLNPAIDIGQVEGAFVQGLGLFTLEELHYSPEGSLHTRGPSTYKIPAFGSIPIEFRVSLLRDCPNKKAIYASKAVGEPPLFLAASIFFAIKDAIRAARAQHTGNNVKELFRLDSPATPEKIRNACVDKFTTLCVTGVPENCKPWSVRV

Compound: O=c1oc2c(O)ccc(-c3oc4cc(O)cc(O)c4c(=O)c3O)c2s1
pIC50 [1]: 7.30

Compound: O=c1oc2ccccc2c2c1C(c1cccs1)C=C(c1ccccc1)O2 (configuration not stated)
pIC50 [3]: 5.66

Compound: O=c1c(-c2ccc(O)cc2)coc2cc(O)cc(O)c12 [GENISTEIN]
pIC50 [5]: 5.45

Other lines, results leading:

pIC50 [2]: 5.53
Compound: COc1cc(O)cc2c(=O)oc(O)c(C)c12

pIC50 [4]: 5.90
Compound: O=c1cc(-c2ccccc2)oc2cc(O)cc(O)c12 [CHRYSIN]

pIC50 [2]: 4.38
Compound: O=c1ccc2cc(O)c(O)cc2o1 [ESCULETIN]

pIC50 [6]: 6.08
Compound: COc1ccc([C@@H]2CC(=O)c3c(O)cc(O)cc3O2)cc1O [HESPERETIN]
